Measurements published in US9315496B2, “Benzopyrone derivative and use thereof” (HUAZHONG UNIVERSITY OF SCIENCE & TECHNOLOGY, priority 2011, dated 2016).
Read-outs that look alike come from different tables or passages of the source.

Key:
mice of Kunming breed = assay: MK-801 induced high activity in mice; assay type: in vivo; conditions: for ED50: Mus musculus, 1.5 h, po, MK-801 0.1 mg/kg ip, spontaneous activity in 90 min
Procedure: Healthy mice of Kunming breed (with half male and half female, (20±2)g) were provided by Qinglongshan Animal Cultivation Center, Nanjing.
Subsequently, the spontaneous activities of the mice of each group in 90 min were measured.

KM mice = assay: Apomorphine induced clambering assay of mice; assay type: in vivo; conditions: for ED50: Mus musculus, po, apomorphine 1 mg/kg sc
Procedure: Healthy KM mice (male, with body weight of 18-22 g) were provided by Qinglongshan Animal Cultivation Center, Nanjing.
Test positive drugs: haloperidol, clozapine, risperidone, olanzapine, aripiprazole, ziprasidone, quetiapine.
Apomorphine provided by Sigma Company was dissolved in 0.9% NaCl (containing 0.1% vitamin C) before use, and was freshly formulated before use.
Corresponding solvent double-distilled water was administered intragastrically to the negative control group and the model group, corresponding positive drugs were administered intragastrically to the positive drug groups (a small amount of acetic acid was first added and then double-distilled water was added when dissolving), and corresponding dosages of compounds were administered intragastrically to the compound groups for each dosage, with the volume for intragastric administration as 0.1 ml/10 g. 1 hour after the intragastric administration, apomorphine was subcutaneously injected (1 mg/kg), with the volume as 0.1 ml/10 g. After the injection of apomorphine, the mice were immediately put into the clambering cages. After 5 min of adaptation, the behaviors of the mice at 10-11, 20-21, and 30-31 min after the injection of apomorphine were observed and scored. Scoring criteria: 4 paws on the floor was scored as 0; 2 forepaws on the cage was scored as 1; and 4 paws on the cage was scored as 2.

in vivo = conditions: both, mouse, po
Procedure: KM mice (half male and half female) were randomly divided into several groups (with 2-5 mice in each group), which were respectively the 2000 mg/kg groups for each compound, and the solvent group. 0.2 ml/10 g were administered intragastrically. The death of the animals in 3 days were observed. (In the case 3 or more animals survived in 3 days without notable abnormity in their life states, the observation was continued until the assay was completed in 7 days. In the case 3 or more animals died in 3 days, the median lethal dose method was used to determine the LD50).
0.2 ml/10 g were administered intragastrically, and the death of the animals in 1-3 days were observed.

5-HT1A receptor = target: T1, 5-HT1A receptor (Rattus norvegicus, UniProt P19327); assay: 5HT1A receptor binding assay (3H-8-OH-DPAT, rat brain striatum membrane); conditions: for IC50: cells marked ^a; for IC50 / inhibition at 10 µM: 3H-8-OH-DPAT, rat brain striatum membrane; for affinity for 5-HT1A receptor (in words): in vitro receptor binding assay; for inhibition at 10 µM: test compound final concentration 10^−5 M
T1 sequence (P19327 1-422): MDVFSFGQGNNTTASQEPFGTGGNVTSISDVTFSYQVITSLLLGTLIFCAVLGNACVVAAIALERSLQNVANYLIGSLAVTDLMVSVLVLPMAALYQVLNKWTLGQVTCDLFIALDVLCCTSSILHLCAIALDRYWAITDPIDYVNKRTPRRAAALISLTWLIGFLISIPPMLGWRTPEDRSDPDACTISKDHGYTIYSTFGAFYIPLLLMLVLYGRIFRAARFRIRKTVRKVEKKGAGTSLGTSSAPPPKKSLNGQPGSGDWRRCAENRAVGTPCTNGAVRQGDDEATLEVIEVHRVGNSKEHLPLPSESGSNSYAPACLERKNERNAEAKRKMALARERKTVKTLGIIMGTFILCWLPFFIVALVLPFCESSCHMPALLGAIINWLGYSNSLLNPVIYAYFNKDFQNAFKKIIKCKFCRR
Procedure: Incubation at 37° C. was conducted for 10 min, the weight of the tubes were adjusted using a balance after incubation. […] Centrifugation was conducted and repeated 3 times.

5-HT2A receptor = 5-HT2A receptor (Rattus norvegicus, UniProt P14842); assay: 5HT2A receptor binding assay ([3H]-Ketanserin, rat brain striatum membrane); conditions: for IC50: cells marked ^a; for IC50 / inhibition at 10 µM: [3H]-Ketanserin, rat brain striatum membrane; for inhibition at 10 µM: test compound final concentration 10^−5 M, read-out: 5HT2A inhibition %
5-HT2A receptor, sequence (P14842 whole entry): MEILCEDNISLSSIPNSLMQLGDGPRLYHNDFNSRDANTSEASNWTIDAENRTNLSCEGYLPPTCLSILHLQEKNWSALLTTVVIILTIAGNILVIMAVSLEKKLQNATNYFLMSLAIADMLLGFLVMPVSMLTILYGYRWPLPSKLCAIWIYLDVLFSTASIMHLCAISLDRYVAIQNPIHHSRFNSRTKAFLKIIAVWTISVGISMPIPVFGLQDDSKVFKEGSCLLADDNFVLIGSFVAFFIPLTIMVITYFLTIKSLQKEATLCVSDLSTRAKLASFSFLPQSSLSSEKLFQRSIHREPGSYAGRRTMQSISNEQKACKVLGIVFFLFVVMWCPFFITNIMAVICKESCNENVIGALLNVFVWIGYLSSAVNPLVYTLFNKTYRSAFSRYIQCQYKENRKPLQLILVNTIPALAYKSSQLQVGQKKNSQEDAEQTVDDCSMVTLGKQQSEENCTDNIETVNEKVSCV

D3 receptor = target: T2, D3 receptor (Homo sapiens, UniProt P35462); assay: D3 receptor assay ([3H]-Spiperone, HEK-293 cells); assay type: binding; conditions: for inhibition at 10 µM: final concentration 10 μmol/L, [3H]-Spiperone, HEK-293 cells; for affinity for D3 receptor (in words): in vitro receptor binding assay
T2 construct: expressed in transfected cells; host or cells: HEK-293
T2 sequence (P35462 whole entry): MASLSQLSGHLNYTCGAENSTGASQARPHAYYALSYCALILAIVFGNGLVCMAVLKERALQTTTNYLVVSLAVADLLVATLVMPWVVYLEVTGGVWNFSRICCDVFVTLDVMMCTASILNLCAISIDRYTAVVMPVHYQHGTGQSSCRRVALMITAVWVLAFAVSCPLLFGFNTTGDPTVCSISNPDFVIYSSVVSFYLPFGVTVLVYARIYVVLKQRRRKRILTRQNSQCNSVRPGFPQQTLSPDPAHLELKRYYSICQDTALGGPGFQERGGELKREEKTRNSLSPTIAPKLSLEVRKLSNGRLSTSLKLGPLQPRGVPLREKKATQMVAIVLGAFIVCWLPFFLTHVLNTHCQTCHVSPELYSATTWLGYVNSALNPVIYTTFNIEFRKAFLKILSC
Procedure: After the cells were centrifuged at 1000 rpm for 5 min, the supernatant was discarded, and the cell pellet was collected and stored in a −20° C. fridge for reservation. It was re-suspended with Tris-Cl (pH 7.4) in the assay.
Tris was divided into aliquots by Genetimes Technology Inc.
Competitive binding test for receptors: 20 μl of each of the test compounds and 20 μl of the radioactive ligand together with 160 μl of the receptor proteins were added into the reaction tubes, and the final concentrations of the test compound and the positive drug were all 10 μmol/L. After 50 min of incubation in 30° C. water bath, the tubes were immediately moved to ice bath to terminate the reactions. GF/C glass fiber filter papers were used for rapid sucking filtration on a Millipore cell sample collector, elution buffer (50 mM Tris-HCl, PH 7.4) was applied for 3 ml×3 times, and microwave was applied for 4-5 min for drying. The filter papers were moved into 0.5 ml centrifuge tubes, and 500 μl of lipid-soluble scintillation solution was added. The tubes were allowed to stand still for over 30 min in dark, and the intensities of radioactivity were measured by a counter.

5-HT2C receptor = 5-HT2C receptor (Rattus norvegicus, UniProt P08909); assay: 5HT2C receptor binding assay ([3H]-mesulergine, rat brain striatum membrane); conditions: for inhibition at 10 µM: read-out: 5HT2C inhibition %
5-HT2C receptor, sequence (P08909 33-460): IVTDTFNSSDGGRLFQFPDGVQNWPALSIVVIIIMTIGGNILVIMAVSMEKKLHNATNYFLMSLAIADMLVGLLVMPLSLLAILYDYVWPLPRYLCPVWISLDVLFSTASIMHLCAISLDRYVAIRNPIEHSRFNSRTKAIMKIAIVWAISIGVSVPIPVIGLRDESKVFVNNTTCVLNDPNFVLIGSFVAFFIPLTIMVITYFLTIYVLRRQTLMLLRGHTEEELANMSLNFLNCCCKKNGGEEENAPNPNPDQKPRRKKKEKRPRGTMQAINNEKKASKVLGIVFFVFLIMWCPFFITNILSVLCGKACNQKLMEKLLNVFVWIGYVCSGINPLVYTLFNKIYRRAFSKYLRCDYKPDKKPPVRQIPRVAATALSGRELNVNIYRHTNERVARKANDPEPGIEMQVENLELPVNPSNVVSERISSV

dopamine D2 receptor = dopamine D2 receptor (Rattus norvegicus, UniProt P61169); assay: D2 receptor binding assay (3H-Spiperone, rat brain striatum membrane); conditions: for affinity for D2 receptor (in words): in vitro receptor binding assay; for inhibition at 10 µM: read-out: D2 inhibition %
dopamine D2 receptor, sequence (P61169 whole entry): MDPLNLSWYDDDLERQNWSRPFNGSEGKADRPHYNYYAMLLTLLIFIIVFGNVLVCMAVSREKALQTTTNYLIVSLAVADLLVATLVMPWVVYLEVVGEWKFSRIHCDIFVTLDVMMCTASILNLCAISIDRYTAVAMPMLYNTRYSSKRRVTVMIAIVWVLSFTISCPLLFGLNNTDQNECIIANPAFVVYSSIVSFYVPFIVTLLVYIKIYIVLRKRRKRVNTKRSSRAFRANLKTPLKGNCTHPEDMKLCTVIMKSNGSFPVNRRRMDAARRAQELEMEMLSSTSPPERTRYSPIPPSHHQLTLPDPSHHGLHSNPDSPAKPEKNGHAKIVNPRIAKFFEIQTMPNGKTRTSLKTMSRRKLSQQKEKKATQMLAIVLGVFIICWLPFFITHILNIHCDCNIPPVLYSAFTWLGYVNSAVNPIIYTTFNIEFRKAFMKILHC
Procedure: Rats were sacrificed by cervical dislocation on ice. Brain striatum was rapidly taken, and 2 brain striatums were combined into a centrifuge tube, to which 3 ml of buffer (0.05 M Tris-HCl buffer, containing NaCl 120 mM, KCl 5 mM, MgCl2 1 mM, CaCl2 1 mM) was added, homogenization was conducted for 3-4 s at level 4 for four times, and then 5 ml of buffer was then added. The weight of the homogenized tubes were adjusted using a balance, and centrifugation was conducted at 12000 r, 4° C. for 20 min. The supernatant was discarded, and 3 ml of buffer was added (0.05 M Tris-HCl buffer, containing NaCl 120 mM, KCl 5 mM, MgCl2 1 mM, CaCl2 1 mM). Vortex mixer was used for blending, and then 5 ml of buffer was added (0.05 M Tris-HCl buffer, containing NaCl 120 mM, KCl 5 mM, MgCl2 1 mM, CaCl2 1 mM). Centrifugation was conducted (repeated 3 times). After the centrifugations, the supernatant was discarded, and the pellets were stored at −80° C. for future use.
Beckman LS-6500 Multi-function Liquid Scintillation Counter was used.
(1) The prepared membrane was first applied with appropriate amount of homogenized liquid, and homogenizer was used for evenly dispersing. 15 tubes were mixed into a 100 ml container, and appropriate amount of homogenized liquid was added to give 50 ml of membrane suspension, which was reserved for future use.
(2) 100 μL of membrane preparation and 100 μL of buffer were added into each reaction tube.
(3) 100 μL of homogenized liquid was added into the total binding tube (TB), 100 μL of Butaclamol (final concentration 10^−5 M) was added into the non-specific binding tube (NB), and 100 μL of the test compound (final concentration 10^−5 M) was added into the specific binding tube (SB) for each compound.
(5) Each of the reaction tubes was incubated at 37° C. for 20 min. After the reaction was completed, the bound ligands were rapidly filtered under reduced pressure, and the ice-chilled assay buffer was used for adequate washing. The filter was taken out and put into a 3 ml scintillation vial, and 2 ml of toluene scintillation solution was added and blended.
(6) The scintillation vials were put into Liquid Scintillation Counter for counting. Inhibitory rate(1%)=(Total binding tube cpm−compound cpm)/(Total binding tube cpm−non-specific binding tube cpm)×100%
Each assay for the compounds was conducted in duplicate.

Catalepsy assay = assay type: in vivo; conditions: both sexes, Kunming (KM), mouse, in vivo; mice, po
Procedure: Healthy mice of Kunming breed (with half male and half female, (22±2)g) were provided by Qinglongshan Animal Cultivation Center, Nanjing.
Instruments: self-made bar-grabbing apparatus: stainless steel bar in mice box, which was 0.3 cm in diameter and […].
Corresponding solvent double-distilled water was administered intragastrically to the negative control group and the model group, corresponding positive drugs were administered intragastrically to the positive drug groups (a small amount of acetic acid was first added and then double-distilled water was added when dissolving), and corresponding dosages of compounds were administered intragastrically to the compound groups for each dosage, with the volume for intragastric administration as 0.1 ml/10 g. At 30 min, 60 min, 90 min after the intragastric administration, the two forepaws of the mice were gently placed on the bars (which were 20 cm in length, 0.3 cm in diameter, and 5.5 cm above the bench), and the hindpaws of the animals were placed on the bottom of the box. The durations for the mice to maintain the posture with the two forepaws on the bars were recorded, and 30 s of spasticity without moving was considered as the positive response. In the case the forepaws of the mice were not put down persistently, the observation was terminated at 60 s. The numbers of animals with positive response in each of the compound dosage groups were counted.

[1] = test compound final concentration 10^−5 M, [3H]-mesulergine, rat brain striatum membrane
[2] = in vitro receptor binding assay

Structure (SMILES) | ED50 (KM mice) | LD50 (in vivo) | IC50 (5-HT1A receptor) | affinity for 5-HT1A receptor (in words) (5-HT1A receptor) | affinity for 5-HT2A receptor (in words) (5-HT2A receptor) | IC50 (5-HT2A receptor) | inhibition at 10 µM (D3 receptor) | affinity for D3 receptor (in words) (D3 receptor) | affinity for 5-HT2C receptor (in words) (5-HT2C receptor) | inhibition at 10 µM (5-HT2C receptor; [1]) | melting point | affinity for D2 receptor (in words) (dopamine D2 receptor) | inhibition at 10 µM (dopamine D2 receptor) | inhibition at 10 µM (5-HT1A receptor) | inhibition at 10 µM (5-HT2A receptor) | other results
Cc1nc2n(c(=O)c1CCN1CCC(c3noc4cc(F)ccc34)CC1)CCCC2 [risperidone, reference compound] | 0.015 mg/kg | 82.1 mg/kg | – | – | – | – | – | – | – | – | – | – | – | – | – | improvement of MK-801 induced high activity (in words) (mice of Kunming breed; compared to the model group): significantly improve; improvement of apomorphine induced clambering symptoms (in words) (KM mice): effectively improve
Cc1cc(=O)oc2c(Cl)c(OCCCN3CCN(c4nsc5ccccc45)CC3)ccc12 [Compound 22, 7-(3-(4-(3-(1,2-benzisothiazole)-1-piperazinyl)-n-propoxy))-4-methyl-8-chloro-2H-benzopyran-2-one] | – | – | 12.8 nM | relatively stronger affinities | relatively stronger affinities | 6.88 nM | 104% | relatively stronger affinities | lower affinities | 99.8% | 162 to 164 °C | relatively stronger affinities | 112% | – | – | –
O=c1cc(-c2ccccc2)c2ccc(OCCCN3CCN(c4nsc5ccccc45)CC3)cc2o1 [Compound 12, 7-(3-(4-(3-(1,2-benzisothiazole)-1-piperazinyl)-n-propoxy))-4-phenyl-2H-benzopyran-2-one] | – | – | 127 nM | relatively stronger affinities | relatively stronger affinities | 9.26 nM | 103% | relatively stronger affinities | lower affinities | 93.4% | – | relatively stronger affinities | 124% | – | – | –
O=c1cc(C(F)(F)F)c2ccc(OCCCCN3CCN(c4nsc5ccccc45)CC3)cc2o1 [Compound 18, 7-(4-(4-(3-(1,2-benzisothiazole)-1-piperazinyl)-n-butoxy))-4-(trifluoromethyl)-2H-benzopyran-2-one] | – | – | 6.19 nM | relatively stronger affinities | relatively stronger affinities | 0.79 nM | 103% | relatively stronger affinities | lower affinities | 77.6% | 93 to 95 °C | relatively stronger affinities | 113% | – | – | –
Cc1cc(=O)oc2cc(OCCCCN3CCC(c4noc5cc(F)ccc45)CC3)ccc12 [Compound 6, 7-(4-(4-(3-(6-fluoro-benzisoxazole)-1-piperidyl)-n-butoxy))-4-methyl-2H-benzopyran-2-one] | 0.11 mg/kg | > 2000 mg/kg | 3.52 nM | relatively stronger affinities | – | 0.39 nM | 100% | relatively stronger affinities | – | – | – | relatively stronger affinities | 101% | – | – | affinity for 5-HT2A receptor (in words) (5-HT2A receptor; [2]): relatively stronger affinities; affinity for 5-HT2C receptor (in words) (5-HT2C receptor; [2]): lower affinities; inhibition at 10 µM (5-HT2C receptor): 91.4%; ED50 (mice of Kunming breed): 0.32 mg/kg; ED50 (Catalepsy assay): 0.68 mg/kg
O=c1ccc2ccc(OCCCCN3CCC(c4noc5cc(F)ccc45)CC3)cc2o1 [Compound 1, 7-(4-(4-(3-(6-fluoro-benzisoxazole)-1-piperidyl)-n-butoxy))-2H-benzopyran-2-one] | 0.32 mg/kg | > 2000 mg/kg | 9.61 nM | relatively stronger affinities | – | 1.53 nM | 97.6% | relatively stronger affinities | – | – | – | relatively stronger affinities | 128% | – | – | affinity for 5-HT2A receptor (in words) (5-HT2A receptor; [2]): relatively stronger affinities; affinity for 5-HT2C receptor (in words) (5-HT2C receptor; [2]): lower affinities; inhibition at 10 µM (5-HT2C receptor): 88%; ED50 (mice of Kunming breed): 0.61 mg/kg; ED50 (Catalepsy assay): 1.41 mg/kg
Cc1cc2c(s1)Nc1ccccc1N=C2N1CCN(C)CC1 [olanzapine, reference compound] | 0.11 mg/kg | – | – | – | – | – | – | – | – | – | – | – | – | – | – | –
Cc1cc(=O)oc2cc(OCCCN3CCN(c4nsc5ccccc45)CC3)ccc12 [Compound 8, 7-(3-(4-(3-(1,2-benzisothiazole)-1-piperazinyl)-n-propoxy))-4-methyl-2H-benzopyran-2-one] | – | – | – | – | – | – | – | – | – | – | 113 to 115 °C | – | 73.8% | 98.5% | 88.6% | –
O=c1cc(-c2ccccc2)c2ccc(OCCCCN3CCN(c4nsc5ccccc45)CC3)cc2o1 [Compound 14, 7-(4-(4-(3-(1,2-benzisothiazole)-1-piperazinyl)-n-butoxy))-4-phenyl-2H-benzopyran-2-one] | – | – | – | – | – | – | – | – | – | – | 116 to 118 °C | – | 68.6% | 95.5% | 83.4% | –
O=c1cc(CO)c2ccc(OCCCCN3CCC(c4noc5cc(F)ccc45)CC3)cc2o1 [Compound 31, 7-(4-(4-(3-(6-fluoro-benzisoxazole)-1-piperidyl)-n-butoxy))-4-hydroxymethyl-2H-benzopyran-2-one] | – | – | – | – | – | – | – | – | – | – | 160 to 162 °C | – | 2.4% | 63.9% | 1.8% | –
